Source: PMC6934184, “Selective DNA-PKcs inhibition extends the therapeutic index of localized radiotherapy and chemotherapy” (The Journal of Clinical Investigation, 2019)

Molecular target: T1, LRRK2 (Homo sapiens, UniProt Q5S007)
T1 construct: purchased Thermo Fisher Scientific (Life Technologies) SelectScreen
Assay: SelectScreen Adapta
Assay type: biochemical
Procedure, shortened: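 Compound tested in SelectScreen activity assays, Z'LYTE for CSF1R, CDK1/cyclin B and MAP2K6 and Adapta for CAMK1. ATP for CAMK1 was listed as 10, and Km app was used for CSF1R. Results are expressed in percent.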

T1 sequence (Q5S007 whole entry): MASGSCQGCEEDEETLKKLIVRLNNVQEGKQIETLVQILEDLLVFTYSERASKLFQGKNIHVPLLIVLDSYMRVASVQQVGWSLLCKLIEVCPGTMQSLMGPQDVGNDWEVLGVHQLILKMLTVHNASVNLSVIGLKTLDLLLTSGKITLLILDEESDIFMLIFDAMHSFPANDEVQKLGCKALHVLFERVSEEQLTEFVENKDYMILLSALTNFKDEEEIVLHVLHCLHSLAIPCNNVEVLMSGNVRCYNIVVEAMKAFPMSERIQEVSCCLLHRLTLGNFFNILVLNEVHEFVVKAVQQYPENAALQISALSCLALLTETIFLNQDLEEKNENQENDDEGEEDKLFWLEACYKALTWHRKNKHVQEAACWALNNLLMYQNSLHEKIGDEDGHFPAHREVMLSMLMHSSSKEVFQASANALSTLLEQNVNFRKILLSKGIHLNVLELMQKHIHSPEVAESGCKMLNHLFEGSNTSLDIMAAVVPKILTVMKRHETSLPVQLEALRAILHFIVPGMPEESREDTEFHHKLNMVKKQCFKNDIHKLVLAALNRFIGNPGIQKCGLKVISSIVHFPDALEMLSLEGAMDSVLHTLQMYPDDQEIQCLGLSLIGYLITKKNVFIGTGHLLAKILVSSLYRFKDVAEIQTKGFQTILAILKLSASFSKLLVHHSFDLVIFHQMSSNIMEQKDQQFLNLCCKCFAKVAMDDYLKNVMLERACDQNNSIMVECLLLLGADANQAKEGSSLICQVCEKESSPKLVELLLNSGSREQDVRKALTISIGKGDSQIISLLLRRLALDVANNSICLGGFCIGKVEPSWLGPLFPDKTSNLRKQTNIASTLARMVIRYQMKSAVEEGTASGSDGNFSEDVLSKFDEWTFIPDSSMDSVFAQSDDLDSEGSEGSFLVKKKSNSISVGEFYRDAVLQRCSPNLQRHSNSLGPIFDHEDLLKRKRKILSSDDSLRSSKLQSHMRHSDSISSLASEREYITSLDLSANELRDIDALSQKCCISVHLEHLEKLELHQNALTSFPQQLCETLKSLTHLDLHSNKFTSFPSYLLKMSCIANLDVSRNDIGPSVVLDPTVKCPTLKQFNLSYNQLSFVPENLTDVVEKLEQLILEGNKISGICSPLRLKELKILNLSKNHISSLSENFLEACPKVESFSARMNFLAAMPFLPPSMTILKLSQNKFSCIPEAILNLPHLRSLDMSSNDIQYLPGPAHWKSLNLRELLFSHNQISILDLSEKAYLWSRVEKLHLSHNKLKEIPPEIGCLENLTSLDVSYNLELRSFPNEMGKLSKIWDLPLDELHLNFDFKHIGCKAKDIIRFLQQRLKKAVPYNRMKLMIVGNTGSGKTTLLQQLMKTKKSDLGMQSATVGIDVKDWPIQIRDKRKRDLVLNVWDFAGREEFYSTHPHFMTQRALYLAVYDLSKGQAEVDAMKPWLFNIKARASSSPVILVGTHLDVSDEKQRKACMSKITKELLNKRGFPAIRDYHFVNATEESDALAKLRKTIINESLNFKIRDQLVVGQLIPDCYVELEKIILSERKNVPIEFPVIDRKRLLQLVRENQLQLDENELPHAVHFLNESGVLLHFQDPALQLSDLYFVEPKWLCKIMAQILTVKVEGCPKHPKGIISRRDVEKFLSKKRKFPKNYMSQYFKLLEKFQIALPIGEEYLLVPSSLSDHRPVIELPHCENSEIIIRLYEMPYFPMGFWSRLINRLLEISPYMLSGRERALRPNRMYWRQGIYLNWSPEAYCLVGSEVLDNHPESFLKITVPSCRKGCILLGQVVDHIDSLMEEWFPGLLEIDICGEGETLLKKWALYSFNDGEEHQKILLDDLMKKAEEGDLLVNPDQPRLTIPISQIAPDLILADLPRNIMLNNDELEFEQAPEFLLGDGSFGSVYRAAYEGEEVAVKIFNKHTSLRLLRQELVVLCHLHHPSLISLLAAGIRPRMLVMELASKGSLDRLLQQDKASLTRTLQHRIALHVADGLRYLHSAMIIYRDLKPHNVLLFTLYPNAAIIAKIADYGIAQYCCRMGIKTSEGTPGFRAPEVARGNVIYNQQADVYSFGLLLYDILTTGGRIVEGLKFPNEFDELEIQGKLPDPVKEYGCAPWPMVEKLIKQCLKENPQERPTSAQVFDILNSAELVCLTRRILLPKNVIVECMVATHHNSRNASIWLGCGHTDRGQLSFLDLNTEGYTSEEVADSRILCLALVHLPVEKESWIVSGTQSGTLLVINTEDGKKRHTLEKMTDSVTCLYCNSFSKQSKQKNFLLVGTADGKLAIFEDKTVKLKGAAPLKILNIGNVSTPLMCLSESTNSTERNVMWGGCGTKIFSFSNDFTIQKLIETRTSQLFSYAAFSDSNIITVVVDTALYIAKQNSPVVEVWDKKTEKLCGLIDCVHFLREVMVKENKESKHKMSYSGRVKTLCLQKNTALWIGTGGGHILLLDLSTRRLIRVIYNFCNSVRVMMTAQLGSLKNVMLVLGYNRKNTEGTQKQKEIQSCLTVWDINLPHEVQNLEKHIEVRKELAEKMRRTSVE

SMILES: CN(C(=O)CN1CCOCC1)c1ccc2sc3c(-c4cccc5c(=O)cc(N6CC7CCC(C6)O7)oc45)cccc3c2c1 [NU5455]
- inhibition at 1 µM: 1.7%
